{
  "source": "patent US8932613B2",
  "about": "“Ectoparasite control method” (E I du Pont de Nemours and Company, priority 2007, dated 2015)",
  "key": {"Adult A. aegypti": {"test_system": "Adult A. aegypti", "assay": "Adult A. aegypti contact assay", "conditions": "treated flask base, bioassay run for 8 hrs", "method": "Adult A. aegypti were exposed to six rates of the positive control compound permethrin and the experimental compounds diluted with acetone. The dilutions of test compound (3-bromo-1-(3-chloro-2-pyridinyl)-N-[4-cyano-2-methyl-6-[(methylamino)carbonyl]phenyl]-1H-pyrazole-5-carboxamide)used were 0 ppm (acetone only), 0.1 ppm, 1 ppm, 10 ppm, 20 ppm, 50 ppm, 100 ppm, 500 ppm and 1000 ppm. Each rate was replicated 5 times. The test was conducted in 100 mL conical flasks. The entire inside of the flasks was coated with Coatasil the day before the treatments are applied. A 0.5 ml aliquot of each rate was applied to the bases only of the flasks. At 24 hours after the surfaces had been treated adult A. aegypti were anaesthetised using food grade carbon dioxide and 10 mosquitoes were introduced to each conical flask and the mouths of the flasks covered with parafilm. Small holes were made in the parafilm to allow gas exchange. The bioassay was run for 8 hrs at 25±2° C. and relative humidity of approximately 70%."}, "[1]": {"test_system": "cat flea (Ctenocephalides felis Bouche)", "assay": "In vivo evaluation against artificial infestations with cat fleas on mice", "conditions": "CD-1 mouse, 10 mg/kg oral in propylene glycol/glycerol formal (60:40), fleas applied 2 h after dosing, evaluated 48 hours after flea application", "method": "For evaluating control of the cat flea (Ctenocephalides felis Bouche), a CD-1® mouse (about 30 g, male, obtained from Charles River Laboratories, Wilmington, Mass.) was orally dosed with test compound in an amount of 10 mg/kg solubilized in propylene glycol/glycerol formal (60:40). Two hours after oral administration of the test compound, approximately 8 to 16 adult fleas were applied to each mouse. The fleas were then evaluated for mortality 48 hours after flea application to the mouse."}, "[2]": {"test_system": "Brown Dog Ticks (R. sanguineus)", "assay": "In vivo evaluation against artificial infestations with brown dog ticks on dogs", "conditions": "topical, test compound 60 mg/kg line-on in NMP, 9 days post-treatment", "text": "Twenty five dogs were used in this study that investigated the efficacy of test compound (3-bromo-1-(3-chloro-2-pyridinyl)-N-[4-cyano-2-methyl-6-[(methylamino)carbonyl]phenyl]-1H-pyrazole-5-carboxamide)\nagainst fleas and ticks. Two groups (one treated and one untreated) of five dogs were used to evaluate the flea efficacy whilst two groups of five dogs (one treated and one untreated) were used to investigate the tick efficacy. The dogs in the respective groups were infested weekly with 40 unfed adult ticks and 100 cat fleas. One group was treated with ADVANTIX and served as a positive control. The dogs in this group were infested simultaneously with fleas and ticks. Test compound was formulated in NMP. The treatment was applied topically via syringe on the dorsal line of the animals as a line-on at 60 mg/kg dose rate. The efficacy of the compound was assessed by weekly tick and flea counts. The weekly counts generated in the treated groups were compared to the positive and negative untreated control (UTC) group counts to evaluate efficacy of Test compound."}, "adult H. irritans exigua": {"test_system": "adult H. irritans exigua", "assay": "Adult H. irritans exigua feeding assay (blood meal assay)", "conditions": "for mortality at 0.2 ppm: 200 ppb in bovine blood; for mortality at 0.4 ppm: 400 ppb in bovine blood; for mortality at 0.6 ppm: 600 ppb in bovine blood", "method": "A blood meal assay was used to determine the LC50 for test compound (3-bromo-1-(3-chloro-2-pyridinyl)-N-[4-cyano-2-methyl-6-[(methylamino)carbonyl]phenyl]-1H-pyrazole-5-carboxamide) on adult H. irritans exigua. Six (6) serial dilutions of the test compound were prepared in decoagulated bovine blood that was stored refrigerated. Ivermectin was included as a positive control compound and a negative control was included in each assay. Flies were collected with a net immediately before each assay from yarded commercial cattle. About 100 adults were introduced into a mesh cage (30×30×30 cm) containing one cotton gauze (4×4×1 cm) soaked in one blood/insecticide concentration. There were 3 replicate cages of each blood/insecticide concentration. Blood gauzes were replaced every 12 hours. The untreated control cages received untreated decoagulated blood. All cages were labelled and stored for 72 hours at 25-27° C. in the dark at ambient relative humidity (70-85%). […] At 72-96 hours all flies were counted and percentage mortality was calculated. Data was subjected to log-probit analysis to determine the LC50 if there is a dose response in the assay."}},
  "data": [
    {"smiles": "CC1(C)C(C=C(Cl)Cl)C1C(=O)OCc1cccc(Oc2ccccc2)c1", "note": "(stereo not shown) [Permethrin, reference compound]", "values": [
      {"measurement": "LC90", "setting": "Adult A. aegypti", "value": 0.046, "unit": "ug/flask"}
    ]},
    {"smiles": "CNC(=O)c1cc(C#N)cc(C)c1NC(=O)c1cc(Br)nn1-c1ncccc1Cl", "note": "[Test compound, 3-bromo-1-(3-chloro-2-pyridinyl)-N-[4-cyano-2-methyl-6-[(methylamino)carbonyl]phenyl]-1H-pyrazole-5-carboxamide]", "values": [
      {"measurement": "LC90", "setting": "Adult A. aegypti", "value": 0.033, "unit": "ug/flask"},
      {"measurement": "flea mortality", "setting": "[1]", "value": 45, "unit": "%"},
      {"measurement": "efficacy against ticks", "setting": "[2]", "value": "over 94.9%"},
      {"measurement": "mortality at 0.2 ppm", "setting": "adult H. irritans exigua; exposure time 7 hr", "value": 77.3, "unit": "%"},
      {"measurement": "mortality at 0.2 ppm", "setting": "adult H. irritans exigua; exposure time 17 hr", "value": 78.8, "unit": "%"},
      {"measurement": "mortality at 0.2 ppm", "setting": "adult H. irritans exigua; exposure time 24 hr", "value": 80.3, "unit": "%"},
      {"measurement": "mortality at 0.4 ppm", "setting": "adult H. irritans exigua; exposure time 7 hr", "value": 78.8, "unit": "%"},
      {"measurement": "mortality at 0.4 ppm", "setting": "adult H. irritans exigua; exposure time 17 hr", "value": 89.8, "unit": "%"},
      {"measurement": "mortality at 0.4 ppm", "setting": "adult H. irritans exigua; exposure time 24 hr", "value": 94.9, "unit": "%"},
      {"measurement": "mortality at 0.6 ppm", "setting": "adult H. irritans exigua; exposure time 7 hr", "value": 80.5, "unit": "%"},
      {"measurement": "mortality at 0.6 ppm", "setting": "adult H. irritans exigua; exposure time 17 hr", "value": 94.7, "unit": "%"},
      {"measurement": "mortality at 0.6 ppm", "setting": "adult H. irritans exigua; exposure time 24 hr", "value": 96.5, "unit": "%"}
    ]}
  ]
}
